Inhibition data for three compounds are collected here from paper PMC6430017, “Structural and chemical insights into the covalent-allosteric inhibition of the protein kinase Akt” (Chemical Science, 2019).

One may read the inhibition as the relative decrease from the control value, in per cent.

Targets include JAK2 (Homo sapiens, UniProt O60674); PDGFRA (PDGFR alpha) (Homo sapiens, UniProt P16234); MARK3 (Homo sapiens, UniProt P27448); MAPK1 (ERK2) (Homo sapiens, UniProt P28482); GRK4 (Homo sapiens, UniProt P32298); CDC42 BPA (MRCKA) (Homo sapiens, UniProt Q5VT25).
Assay in all cases: SelectScreen Z'LYTE kinase profiling
Holding throughout (type): biochemical
Holding throughout (details): ATP at apparent KM

In another test the target is T1, DCAMKL2 (DCK2) (Homo sapiens, UniProt Q8N568).
T1 sequence (Q8N568 1-766): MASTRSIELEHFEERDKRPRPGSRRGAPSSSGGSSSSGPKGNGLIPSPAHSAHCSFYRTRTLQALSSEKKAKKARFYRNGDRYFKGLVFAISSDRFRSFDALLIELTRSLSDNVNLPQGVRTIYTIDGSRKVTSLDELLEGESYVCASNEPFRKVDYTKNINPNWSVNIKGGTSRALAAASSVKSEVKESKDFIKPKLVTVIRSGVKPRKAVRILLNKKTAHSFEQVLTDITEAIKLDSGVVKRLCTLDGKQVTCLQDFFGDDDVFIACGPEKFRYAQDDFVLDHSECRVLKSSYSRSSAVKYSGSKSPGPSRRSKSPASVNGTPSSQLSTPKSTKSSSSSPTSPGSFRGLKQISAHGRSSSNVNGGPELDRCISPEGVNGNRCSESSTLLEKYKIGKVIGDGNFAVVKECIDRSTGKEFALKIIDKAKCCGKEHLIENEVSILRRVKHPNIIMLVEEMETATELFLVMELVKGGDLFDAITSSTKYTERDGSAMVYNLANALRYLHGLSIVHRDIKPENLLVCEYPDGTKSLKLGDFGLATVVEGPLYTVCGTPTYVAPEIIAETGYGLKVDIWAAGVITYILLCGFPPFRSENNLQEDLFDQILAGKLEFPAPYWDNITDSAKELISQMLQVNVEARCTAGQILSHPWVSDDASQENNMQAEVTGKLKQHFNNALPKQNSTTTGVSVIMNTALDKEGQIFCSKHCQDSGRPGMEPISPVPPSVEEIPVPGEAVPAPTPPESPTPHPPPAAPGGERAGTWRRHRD

Another test concerns the target T2, SGK (SGK1) (Homo sapiens, UniProt O00141).
T2 sequence (O00141 1-431): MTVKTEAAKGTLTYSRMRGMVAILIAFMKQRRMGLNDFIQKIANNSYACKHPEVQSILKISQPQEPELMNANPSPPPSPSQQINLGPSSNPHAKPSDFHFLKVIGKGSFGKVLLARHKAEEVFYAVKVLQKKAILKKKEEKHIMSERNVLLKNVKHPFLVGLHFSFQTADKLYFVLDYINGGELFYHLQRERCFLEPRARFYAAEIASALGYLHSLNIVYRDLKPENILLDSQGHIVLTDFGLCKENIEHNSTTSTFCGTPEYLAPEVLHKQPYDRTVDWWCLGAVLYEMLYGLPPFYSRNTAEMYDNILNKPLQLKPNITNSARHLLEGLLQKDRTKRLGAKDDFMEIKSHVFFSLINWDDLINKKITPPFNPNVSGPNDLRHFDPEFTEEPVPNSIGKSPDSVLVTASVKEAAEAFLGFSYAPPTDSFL

In a further test the target is T3, BRSK1 (SAD1) (Homo sapiens, UniProt Q8TDC3).
T3 sequence (Q8TDC3 1-778): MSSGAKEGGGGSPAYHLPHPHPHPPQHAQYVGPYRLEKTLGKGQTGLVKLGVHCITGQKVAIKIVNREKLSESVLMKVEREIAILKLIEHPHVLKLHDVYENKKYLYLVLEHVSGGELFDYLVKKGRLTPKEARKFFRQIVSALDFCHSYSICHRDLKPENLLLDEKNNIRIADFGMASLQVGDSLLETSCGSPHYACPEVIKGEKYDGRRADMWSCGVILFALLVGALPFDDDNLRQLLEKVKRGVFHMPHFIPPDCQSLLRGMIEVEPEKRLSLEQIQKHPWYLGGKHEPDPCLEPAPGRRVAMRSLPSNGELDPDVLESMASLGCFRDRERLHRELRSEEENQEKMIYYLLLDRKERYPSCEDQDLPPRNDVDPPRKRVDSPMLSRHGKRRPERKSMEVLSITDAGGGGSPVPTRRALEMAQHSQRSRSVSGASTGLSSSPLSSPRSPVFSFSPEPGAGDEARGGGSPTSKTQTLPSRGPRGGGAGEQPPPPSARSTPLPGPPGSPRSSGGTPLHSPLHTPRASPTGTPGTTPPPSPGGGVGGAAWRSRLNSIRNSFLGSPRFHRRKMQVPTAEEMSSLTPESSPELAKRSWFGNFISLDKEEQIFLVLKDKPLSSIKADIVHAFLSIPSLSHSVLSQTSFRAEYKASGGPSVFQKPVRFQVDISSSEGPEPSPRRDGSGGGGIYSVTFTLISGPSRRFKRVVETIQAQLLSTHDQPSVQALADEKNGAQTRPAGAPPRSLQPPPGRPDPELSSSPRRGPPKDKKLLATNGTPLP

Sequence of JAK2 (O60674 whole entry): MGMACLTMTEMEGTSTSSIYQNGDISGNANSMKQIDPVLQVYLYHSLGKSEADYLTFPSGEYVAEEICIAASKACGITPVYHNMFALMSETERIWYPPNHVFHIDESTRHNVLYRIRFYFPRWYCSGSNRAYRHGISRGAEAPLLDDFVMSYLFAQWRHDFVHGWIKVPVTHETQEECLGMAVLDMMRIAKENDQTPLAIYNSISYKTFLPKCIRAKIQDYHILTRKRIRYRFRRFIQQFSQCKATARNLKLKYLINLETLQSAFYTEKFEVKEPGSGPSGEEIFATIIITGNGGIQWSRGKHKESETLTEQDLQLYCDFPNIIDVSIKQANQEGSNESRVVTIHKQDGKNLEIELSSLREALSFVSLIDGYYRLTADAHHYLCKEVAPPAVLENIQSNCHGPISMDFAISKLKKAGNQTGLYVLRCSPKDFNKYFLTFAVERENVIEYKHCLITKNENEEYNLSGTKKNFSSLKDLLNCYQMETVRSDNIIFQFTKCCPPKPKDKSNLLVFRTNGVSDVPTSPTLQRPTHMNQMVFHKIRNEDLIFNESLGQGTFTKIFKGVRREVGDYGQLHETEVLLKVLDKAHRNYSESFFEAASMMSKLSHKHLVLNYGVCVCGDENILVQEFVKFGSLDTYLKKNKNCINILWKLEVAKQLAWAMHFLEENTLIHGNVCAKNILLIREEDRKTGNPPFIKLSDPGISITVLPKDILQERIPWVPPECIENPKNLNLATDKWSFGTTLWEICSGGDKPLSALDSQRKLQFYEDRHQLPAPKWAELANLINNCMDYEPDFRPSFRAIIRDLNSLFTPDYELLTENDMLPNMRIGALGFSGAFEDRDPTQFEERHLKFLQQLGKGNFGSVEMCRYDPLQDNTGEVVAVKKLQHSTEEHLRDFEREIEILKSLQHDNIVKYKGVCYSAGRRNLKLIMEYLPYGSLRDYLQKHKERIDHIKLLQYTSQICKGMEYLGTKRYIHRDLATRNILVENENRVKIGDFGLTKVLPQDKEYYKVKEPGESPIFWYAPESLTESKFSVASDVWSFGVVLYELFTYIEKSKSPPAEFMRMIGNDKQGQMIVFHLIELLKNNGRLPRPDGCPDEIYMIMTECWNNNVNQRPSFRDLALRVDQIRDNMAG
Sequence of GRK4 (P32298 whole entry): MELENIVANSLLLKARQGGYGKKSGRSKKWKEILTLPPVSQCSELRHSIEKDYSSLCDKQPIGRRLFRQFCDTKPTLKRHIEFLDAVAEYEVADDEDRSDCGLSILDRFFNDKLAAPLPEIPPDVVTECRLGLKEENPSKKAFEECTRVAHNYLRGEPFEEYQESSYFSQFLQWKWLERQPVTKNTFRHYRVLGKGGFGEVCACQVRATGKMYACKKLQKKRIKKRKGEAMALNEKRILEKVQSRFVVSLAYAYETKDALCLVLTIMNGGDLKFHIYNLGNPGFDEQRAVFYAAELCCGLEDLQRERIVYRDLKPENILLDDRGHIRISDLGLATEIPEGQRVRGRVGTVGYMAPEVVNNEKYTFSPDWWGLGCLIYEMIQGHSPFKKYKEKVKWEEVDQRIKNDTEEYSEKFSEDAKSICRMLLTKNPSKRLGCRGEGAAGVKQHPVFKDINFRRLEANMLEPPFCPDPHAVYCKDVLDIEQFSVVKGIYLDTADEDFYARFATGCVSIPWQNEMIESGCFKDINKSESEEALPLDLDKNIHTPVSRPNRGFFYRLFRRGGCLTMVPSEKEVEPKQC
Sequence of MARK3 (P27448 whole entry): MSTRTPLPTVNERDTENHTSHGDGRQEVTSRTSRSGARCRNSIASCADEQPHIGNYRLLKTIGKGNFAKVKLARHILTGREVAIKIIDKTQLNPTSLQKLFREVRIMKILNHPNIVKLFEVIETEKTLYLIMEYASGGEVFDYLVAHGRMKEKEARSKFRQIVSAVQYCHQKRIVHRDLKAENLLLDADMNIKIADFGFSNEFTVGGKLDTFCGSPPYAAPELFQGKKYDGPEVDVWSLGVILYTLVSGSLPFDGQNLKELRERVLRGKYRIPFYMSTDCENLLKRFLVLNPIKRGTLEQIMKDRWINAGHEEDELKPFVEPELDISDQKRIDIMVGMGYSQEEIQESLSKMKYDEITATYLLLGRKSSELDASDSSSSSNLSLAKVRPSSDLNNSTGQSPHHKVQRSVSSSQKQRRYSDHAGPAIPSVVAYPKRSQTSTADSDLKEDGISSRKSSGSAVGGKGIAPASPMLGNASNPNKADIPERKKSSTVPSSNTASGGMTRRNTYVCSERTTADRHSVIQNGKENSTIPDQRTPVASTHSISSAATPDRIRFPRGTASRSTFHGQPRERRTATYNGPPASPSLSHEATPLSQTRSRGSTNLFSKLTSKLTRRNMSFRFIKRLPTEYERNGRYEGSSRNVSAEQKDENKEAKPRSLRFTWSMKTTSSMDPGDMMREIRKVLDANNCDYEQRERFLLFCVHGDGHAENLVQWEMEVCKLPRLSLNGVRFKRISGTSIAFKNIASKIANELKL
Sequence of PDGFRA (PDGFR alpha) (P16234 24-1089): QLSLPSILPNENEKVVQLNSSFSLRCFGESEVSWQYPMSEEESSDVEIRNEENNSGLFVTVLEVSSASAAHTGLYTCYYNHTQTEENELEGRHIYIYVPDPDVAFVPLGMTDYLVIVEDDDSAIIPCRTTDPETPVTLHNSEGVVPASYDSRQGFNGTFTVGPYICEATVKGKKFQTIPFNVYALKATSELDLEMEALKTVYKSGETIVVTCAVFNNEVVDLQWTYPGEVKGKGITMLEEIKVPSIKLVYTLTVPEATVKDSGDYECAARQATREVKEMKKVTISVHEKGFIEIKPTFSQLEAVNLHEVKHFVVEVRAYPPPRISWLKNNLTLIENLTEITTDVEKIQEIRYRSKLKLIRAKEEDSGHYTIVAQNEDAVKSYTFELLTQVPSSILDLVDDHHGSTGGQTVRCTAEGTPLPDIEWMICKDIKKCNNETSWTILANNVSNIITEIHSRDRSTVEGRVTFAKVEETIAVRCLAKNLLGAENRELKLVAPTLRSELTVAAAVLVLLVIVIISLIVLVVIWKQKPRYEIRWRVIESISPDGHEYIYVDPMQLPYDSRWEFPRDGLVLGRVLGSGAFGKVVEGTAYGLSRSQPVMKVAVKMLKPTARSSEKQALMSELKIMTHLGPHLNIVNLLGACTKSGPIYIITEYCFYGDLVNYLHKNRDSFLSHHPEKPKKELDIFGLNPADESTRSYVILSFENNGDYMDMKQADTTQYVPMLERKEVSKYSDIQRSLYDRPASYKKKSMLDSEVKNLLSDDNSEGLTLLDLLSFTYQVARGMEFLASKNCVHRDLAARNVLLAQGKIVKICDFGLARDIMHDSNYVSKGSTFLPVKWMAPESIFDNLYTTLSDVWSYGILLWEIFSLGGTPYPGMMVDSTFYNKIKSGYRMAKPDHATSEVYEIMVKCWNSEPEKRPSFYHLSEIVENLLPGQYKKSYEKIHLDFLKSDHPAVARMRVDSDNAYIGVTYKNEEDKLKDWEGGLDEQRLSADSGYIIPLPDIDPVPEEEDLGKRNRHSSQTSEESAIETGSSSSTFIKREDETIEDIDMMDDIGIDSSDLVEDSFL
Sequence of MAPK1 (ERK2) (P28482 whole entry): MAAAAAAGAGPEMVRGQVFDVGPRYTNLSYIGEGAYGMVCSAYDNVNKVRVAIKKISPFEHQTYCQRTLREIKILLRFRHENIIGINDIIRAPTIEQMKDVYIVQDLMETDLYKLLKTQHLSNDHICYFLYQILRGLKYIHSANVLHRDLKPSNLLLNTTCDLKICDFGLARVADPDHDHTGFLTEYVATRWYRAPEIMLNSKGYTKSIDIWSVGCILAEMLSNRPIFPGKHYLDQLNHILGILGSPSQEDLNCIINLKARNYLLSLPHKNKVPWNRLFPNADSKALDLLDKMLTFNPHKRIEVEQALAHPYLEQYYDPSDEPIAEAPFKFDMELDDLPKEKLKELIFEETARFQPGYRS
Description for BRSK1 (SAD1): (§1) protein kinases at a compound concentration of 1 µM. Measurements were performed in duplicates
(§2) and at the particular apparent ATP KM of each individual kinase employing the activity based Z’LYTE®
(§3) kinase assay of the SelectScreen® Kinase Profiling Services (ThermoFisher Scientific).
(§4) kinases at a compound concentration of 1 µM. Measurements were performed in duplicates and at
(§5) the particular apparent ATP KM of each individual kinase employing the activity based Z’LYTE® kinase
(§6) assay of the SelectScreen® Kinase Profiling Services (ThermoFisher Scientific).
Description for CDC42 BPA (MRCKA): as §1, §2, §3, §4, §5, §6
Description for DCAMKL2 (DCK2): as §1, §2, §3, §4, §5, §6
Description for GRK4: as §1, §2, §3, §4, §5, §6
Description for JAK2: as §1, §2, §3, §4, §5, §6
Description for MAPK1 (ERK2): as §1, §2, §3, §4, §5, §6
Description for MARK3: as §1, §2, §3, §4, §5, §6
Description for PDGFRA (PDGFR alpha): as §1, §2, §3, §4, §5, §6
Description for SGK (SGK1): as §1, §2, §3, §4, §5, §6

Regarding `C=CC(=O)Nc1ccc2c(c1)n(C1CCN(Cc3ccc(-c4nc5cc[nH]c(=O)c5cc4-c4ccccc4)cc3)CC1)c(=O)n2C` [24b], the inhibition at 1 µM at DCAMKL2 (DCK2) was -1%; at JAK2, 2%; on SGK (SGK1) it was 19%; on PDGFRA (PDGFR alpha) it was -5%; at MARK3, -1%; at BRSK1 (SAD1), 2%. Moreover, the figures for the inhibition at 1 µM on MAPK1 (ERK2), at GRK4 and at CDC42 BPA (MRCKA) were 2%, -1% and 3%, respectively.
On to `C=CC(=O)Nc1cccc(C(=O)NC2CCN(Cc3ccc(-c4nc5cc[nH]c(=O)c5cc4-c4ccccc4)cc3)CC2)c1` [30b], for which the inhibition at 1 µM at DCAMKL2 (DCK2) was 3%; at JAK2, 16%; at SGK (SGK1), 29%; at PDGFRA (PDGFR alpha), -7%; on MARK3, 3%; on BRSK1 (SAD1), 7%. Moreover, the inhibition at 1 µM on MAPK1 (ERK2) stood at 13%; at GRK4 it was 6%; at CDC42 BPA (MRCKA), 2%.
For `C=CC(=O)Nc1cc(NC(=O)NC2CCN(Cc3ccc(-c4nc5cc[nH]c(=O)c5cc4-c4ccccc4)cc3)CC2)ccc1Cl` [compound 27], the inhibition at 1 µM on DCAMKL2 (DCK2) was -1%; on JAK2 it was 0%; on SGK (SGK1), 21%; on PDGFRA (PDGFR alpha) it was 0%; on MARK3 it was 3%; at BRSK1 (SAD1), 16%. The inhibition at 1 µM on MAPK1 (ERK2) came to 11%; on GRK4 it was 11%; at CDC42 BPA (MRCKA), 8%.
